# Reference: ChEMBL document CHEMBL3244162, “Synthesis and biological evaluation of tetramisole analogues as inhibitors of alkaline phosphatase of the 6-thiopurine-resistant tumor sarcoma 180/TG” (J Med Chem, 1979)
# Where a name gives a salt, the structure may show the parent alone. The source made the active and inactive calls. The rule behind the calls is not given here.
# Experiments:
# Assay type in all cases: cell-based
# [1] = organism: Mus musculus; experiment: Inhibition of alkaline phosphatase in mouse 180/TG cells assessed as p-nitrophenyl phosphate hydrolysis up to 1 mM by spectrophotometry
# [2] = organism: Mus musculus; experiment: Inhibition of alkaline phosphatase in mouse 180/TG cells assessed as p-nitrophenyl phosphate hydrolysis up to 5 mM by spectrophotometry
# [3] = Inhibition of alkaline phosphatase in mouse 180/TG cells assessed as p-nitrophenyl phosphate hydrolysis by spectrophotometry; details: read-out: I50
IC50 [3] [µM],SMILES,inhibition [1],inhibition [2] [%]
–,c1ccc(C2CN3CCNC3=N2)cc1 (stereo not given),inactive,15
45,c1ccc(C2CN3CCSC3=N2)cc1 (stereo not given) [TETRAMISOLE HYDROCHLORIDE],–,–
–,c1ccc(-c2cn3c(n2)OCC3)cc1,inactive,–
210,c1ccc(C2CN3CCOC3=N2)cc1 (stereo not given),–,–
